# Marks after values point to notes of the source that are not given here.
# Columns and labels:
# [1] = Solubility of natural-type NAG in water; type: physicochemical; settings: water of 25° C.
# From the text: In the present invention, as a carrier for the skin care agent, foods such as confectioneries, powdered soups, dairy products and beverages, may, for example, be mentioned. As such foods, specifically, gum, candies, tabletted confectioneries, chocolate, jelly, cookies, snacks, corn potage soup, consomme soup, milk, pudding, yogurt, ice cream, lactic acid beverages, alcohol beverages, vitamin beverages, mineral beverages, coffee beverages, near water, nutrition drinks, and the like, may be mentioned.
# hyaluronic acid in skin = assay: Influence of orally administered NAG on hyaluronic acid content in skin; type: in vivo, hairless rats; settings: for Hyaluronic acid content, Epidermis / Hyaluronic acid content, Corium: hairless rats; for Hyaluronic acid content, Epidermis: 4 weeks (0 mg/kg/day: 31.25); for Hyaluronic acid content, Corium: 4 weeks (0 mg/kg/day: 462.7)
# Protocol: Using hairless rats, influence of orally administered NAG on the content of hyaluronic acid in skin was tested. The NAG prepared in PREPARATION EXAMPLE 1 was mixed to a basic feed (Solid feed MF, manufactured by Oriental Kobo Kogyo Kabushiki Kaisha), and rats were permitted to freely ingest the mixture so that the substantial administered amount of NAG would be 0, 20 or 200 mg/kg of body weight/day. Administration was continued for 4 weeks from 9 week instar to 13 week instar, and the hyaluronic acid amounts in skin layer were measured separately for epidermis and corium. In this connection, the measurement of the hyaluronic acid was carried out in accordance with a hyaluronic acid measurement kit (manufactured by Chugai Shindanyaku Co.).
# skin surface = assay: Microscopic three-dimensional skin surface analysis (VISIOSCAN); type: in vivo, human; parameters: key to SEsc (Ideal value: Lowest value), Below left eye / SEsc (Ideal value: Lowest value), Left upper arm: SEsc = I/(Nx×Ny)×100; lower = more moist, less scaling; key to SEsm (Ideal value: Lowest value), Left upper arm / SEsm (Ideal value: Lowest value), Below left eye: SEsm = (Co−Cu)×(Fmx−Fmy)×K; lower = smoother skin; SWw (Ideal value: Lowest value), Below left eye / SWw (Ideal value: Lowest value), Left upper arm: scale not given here; settings: for Kurtosis (Ideal value: 0), Below left eye / Kurtosis (Ideal value: 0), Left upper arm / Kurtosis (Ideal value: 0), Poll / SEr (Ideal value: Lowest value), Below left eye / SEr (Ideal value: Lowest value), Left upper arm / SEr (Ideal value: Lowest value), Poll / SEsc (Ideal value: Lowest value), Below left eye / SEsc (Ideal value: Lowest value), Left upper arm / SEsc (Ideal value: Lowest value), Poll / SEsm (Ideal value: Lowest value), Below left eye / SEsm (Ideal value: Lowest value), Left upper arm / SEsm (Ideal value: Lowest value), Poll / SWw (Ideal value: Lowest value), Below left eye / SWw (Ideal value: Lowest value), Left upper arm / SWw (Ideal value: Lowest value), Poll: NAG 1,000 mg/day oral; for SEr (Ideal value: Lowest value), Below left eye / SEr (Ideal value: Lowest value), Left upper arm / SEr (Ideal value: Lowest value), Poll: skin roughness; for SEsc (Ideal value: Lowest value), Below left eye / SEsc (Ideal value: Lowest value), Left upper arm / SEsc (Ideal value: Lowest value), Poll: skin scaliness; for SEsm (Ideal value: Lowest value), Below left eye / SEsm (Ideal value: Lowest value), Left upper arm / SEsm (Ideal value: Lowest value), Poll: skin smoothness; for SWw (Ideal value: Lowest value), Below left eye / SWw (Ideal value: Lowest value), Left upper arm / SWw (Ideal value: Lowest value), Poll: skin wrinkles
# Protocol: To 22 females usually having a tendency of xeroderma and rough skin (average age: 25.5±10.7), a double blind long-term ingestion study was carried out in the following manners provided that a […] were given to a control group.
# NAG-containing tablets-administered group (NAG group, n=11): Tablets prepared similarly as in Example 1 as described below (NAG amount: 200 mg/tablet), were ingested at a rate of 5 tablets/day (NAG 1,000 mg/day, as a daily dose).
# The ingestion period was 8 weeks in each group. The inspection was in principle carried out just before the start of ingestion, 4 weeks after the start of ingestion, and just before the completion of ingestion (8 weeks after the start of ingestion).
# This analysis was conducted by using a digital analyzer of the skin surface (VISIONSCAN: manufactured by Courage+Khazaka Electronic Gmbh). In use of this apparatus, the skin surface was irradiated with special ultraviolet ray source, and the image is taken by a high performance CCD camera and digitalized for evaluation. The following factors were sampled as parameters.
# This value is calculated from the average of the width and depth of wrinkles by the following formula (i), and one of indices which show the smoothness of skin. The smaller this value is, the smoother the skin surface is. SEsm=(Co−Cu)×(Fmx−Fmy)×K (i) • Fmx: average width of furrows for the row analysis. • Fmy: average width of furrows for the column analysis. • Co: right frontier of the histogram whose calculation is based on a set-up values. • Cu: left frontier of the histogram whose calculation is based on a set-up values. • K: factor
# This value is obtained by calculating the ratio of points darker than the set-up points in the whole image and further calculating by the following formula (ii), and one of indices which show the roughness of skin. The higher the value is, the rougher the skin is. SEr=I/(Nx×Ny)×100 (ii) • I: counter whose start value is 0 and which is incremented each time the gray value of the current point is smaller than the threshold issued from the set-up programs. • Nx: amount of point per row. • Ny: amount of point per column.
# Epidermolysis parts are counted to be brighter than the set-up values in the image. The SEsc value is obtained by calculating the ratio of these parts relative to the entire part by the following formula (iii), and is one of indices which show the dryness of scale (corneum). The lower the value is, the more moist and the less epidermolysis (scale). SEsc=I/(Nx×Ny)×100 (iii) • I: counter whose start value is 0 and which is incremented each time the gray value of the current point is bigger than the threshold issued from the set-up programs. • Nx: amount of point per row. • Ny: amount of point per column.
# The higher the value is, the more the number of wrinkle is and the wider the width of wrinkles is. SEw=Fmx×Fmy/(Fax×Fay)×Fay/Fax×K (iv) • Fax: amount of furrows for the row analysis. • Fmx: average width of furrows for the row analysis. • Fay: amount of furrows for the column analysis. • Fmy: average width of furrows for the column analysis. • K: factor
# The closer to 0 the value is, the smoother in curve the hue point is and the closer to ideal skin.
compound,measurement,setting,value
"CC(=O)N[C@H]1C(O)O[C@H](CO)[C@@H](O)[C@@H]1O (stereo partly shown) [NAG, N-acetylglucosamine]",solubility in water,[1],32 % by weight
same,hyaluronic acid contents in epidermis and corium versus administered amount,"hyaluronic acid in skin; hairless rats, 0, 20 or 200 mg/kg/day, 4 weeks",tend to increase together in proportion to the administered amounts
same,"Hyaluronic acid content, Epidermis",hyaluronic acid in skin; NAG 20 mg/kg/day in feed,33.77 μg/g dried tissue
same,"Hyaluronic acid content, Corium",hyaluronic acid in skin; NAG 20 mg/kg/day in feed,506.6 μg/g dried tissue
same,"Hyaluronic acid content, Epidermis",hyaluronic acid in skin; NAG 200 mg/kg/day in feed,35.09 μg/g dried tissue
same,"Hyaluronic acid content, Corium",hyaluronic acid in skin; NAG 200 mg/kg/day in feed,549.8 μg/g dried tissue
same,"Kurtosis (Ideal value: 0), Below left eye",skin surface; after 4 weeks,0.34
same,"Kurtosis (Ideal value: 0), Left upper arm",skin surface; after 4 weeks,0.40
same,"Kurtosis (Ideal value: 0), Poll",skin surface; after 4 weeks,0.39
same,"Kurtosis (Ideal value: 0), Below left eye",skin surface; after 8 weeks,0.30
same,"Kurtosis (Ideal value: 0), Left upper arm",skin surface; after 8 weeks,0.50
same,"Kurtosis (Ideal value: 0), Poll",skin surface; after 8 weeks,0.39
same,"Kurtosis (Ideal value: 0), Below left eye",skin surface; before ingestion,0.58
same,"Kurtosis (Ideal value: 0), Left upper arm",skin surface; before ingestion,0.97
same,"Kurtosis (Ideal value: 0), Poll",skin surface; before ingestion,0.79
same,"SEsm value and SEsc value at the poll, change","skin surface; NAG group, 1,000 mg/day oral, 8 weeks",significant decrease
same,"SEr (Ideal value: Lowest value), Below left eye",skin surface; after 4 weeks,0.26
same,"SEr (Ideal value: Lowest value), Left upper arm",skin surface; after 4 weeks,0.22
same,"SEr (Ideal value: Lowest value), Poll",skin surface; after 4 weeks,0.32
same,"SEr (Ideal value: Lowest value), Below left eye",skin surface; after 8 weeks,0.21
same,"SEr (Ideal value: Lowest value), Left upper arm",skin surface; after 8 weeks,0.28
same,"SEr (Ideal value: Lowest value), Poll",skin surface; after 8 weeks,0.40
same,"SEr (Ideal value: Lowest value), Below left eye",skin surface; before ingestion,0.25
same,"SEr (Ideal value: Lowest value), Left upper arm",skin surface; before ingestion,0.30
same,"SEr (Ideal value: Lowest value), Poll",skin surface; before ingestion,0.51
same,"SEsc (Ideal value: Lowest value), Below left eye",skin surface; after 4 weeks,137.0
same,"SEsc (Ideal value: Lowest value), Left upper arm",skin surface; after 4 weeks,195.8
same,"SEsc (Ideal value: Lowest value), Poll",skin surface; after 4 weeks,201.6
same,"SEsc (Ideal value: Lowest value), Below left eye",skin surface; after 8 weeks,133.0
same,"SEsc (Ideal value: Lowest value), Left upper arm",skin surface; after 8 weeks,202.4
same,"SEsc (Ideal value: Lowest value), Poll","skin surface; after 8 weeks, p < 0.05",169.3*
same,"SEsc (Ideal value: Lowest value), Below left eye",skin surface; before ingestion,238.4
same,"SEsc (Ideal value: Lowest value), Left upper arm",skin surface; before ingestion,342.9
same,"SEsc (Ideal value: Lowest value), Poll",skin surface; before ingestion,352.4
same,"SEsm (Ideal value: Lowest value), Below left eye",skin surface; after 4 weeks,337.6
same,"SEsm (Ideal value: Lowest value), Left upper arm",skin surface; after 4 weeks,324.7
same,"SEsm (Ideal value: Lowest value), Poll","skin surface; after 4 weeks, p < 0.05",338.9*
same,"SEsm (Ideal value: Lowest value), Below left eye",skin surface; after 8 weeks,309.4
same,"SEsm (Ideal value: Lowest value), Left upper arm",skin surface; after 8 weeks,379.9
same,"SEsm (Ideal value: Lowest value), Poll","skin surface; after 8 weeks, p < 0.05",345.2*
same,"SEsm (Ideal value: Lowest value), Below left eye",skin surface; before ingestion,378.1
same,"SEsm (Ideal value: Lowest value), Left upper arm",skin surface; before ingestion,384.7
same,"SEsm (Ideal value: Lowest value), Poll",skin surface; before ingestion,443.8
same,"SWw (Ideal value: Lowest value), Below left eye",skin surface; after 4 weeks,29.0
same,"SWw (Ideal value: Lowest value), Left upper arm",skin surface; after 4 weeks,26.4
same,"SWw (Ideal value: Lowest value), Poll",skin surface; after 4 weeks,23.4
same,"SWw (Ideal value: Lowest value), Below left eye",skin surface; after 8 weeks,27.8
same,"SWw (Ideal value: Lowest value), Left upper arm",skin surface; after 8 weeks,31.9
same,"SWw (Ideal value: Lowest value), Poll",skin surface; after 8 weeks,29.5
same,"SWw (Ideal value: Lowest value), Below left eye",skin surface; before ingestion,33.2
same,"SWw (Ideal value: Lowest value), Left upper arm",skin surface; before ingestion,30.2
same,"SWw (Ideal value: Lowest value), Poll",skin surface; before ingestion,27.3
